# Reference: paper PMC10056986 (Pharmaceuticals, 2023)
# Where two headings read alike, the source gives them in different places.
# How the values were obtained:
# [1] = test system: EV71 Shenzhen/120F1/09; assay: microbe, parasite or virus in culture; format: cell-based, human enterovirus 71; conditions: Enterovirus A, EV71, RD, read-out: EC50 for Virus
# [2] = Cytotoxicity in parallel to antiviral assay; conditions: human
# [3] = test system: HSV-1 GHSV-UL46; assay: microbe, parasite or virus in culture; format: cell-based, herpes simplex virus type 1; conditions: Human alphaherpesvirus 1, Vero C1008, read-out: EC50 for Virus
# [4] = Cytotoxicity in parallel to antiviral assay; conditions: African green monkey
# [5] = test system: HBV; assay: microbe, parasite or virus in culture; format: cell-based; conditions: Hepatitis B virus, HepG2.2.15, read-out: EC50 for Virus
# [6] = in vitro; conditions: human
# [7] = test system: Influenza virus A/Mal/302/54 (H1N1); assay: microbe, parasite or virus in culture; format: cell-based; conditions: H1N1, MDCK, read-out: EC50 (mean ± SD)
# [8] = test system: A/Anhui/01/2013 (H7N9); assay: microbe, parasite or virus in culture; format: cell-based, avian influenza virus; conditions: Influenza A virus, H7N9, MDCK, read-out: IC50 (mean ± SD)
# [9] = test system: A/PR/8/34 (H1N1); set-up: species or system BALB/c mice; conditions: mouse, in vivo
# [10] = test system: influenza A virus WSN/33 (H1N1); set-up: species or system BALB/c mice; conditions: mouse, in vivo
# [11] = test system: A/Guangzhou/39715/2014 (H5N6); assay: microbe, parasite or virus in culture; format: cell-based, avian influenza virus; conditions: unidentified influenza virus, H5N6, MDCK, read-out: IC50 (mean ± SD)
# [12] = test system: Influenza virus A/WSN/33 (H1N1); assay: microbe, parasite or virus in culture; format: cell-based; conditions: MDCK, read-out: EC50 (mean ± SD)
# [13] = test system: influenza A virus/California/07/2009 (H1N1); set-up: species or system ferrets; conditions: in vivo, po, 25 mg/kg/day
# [14] = test system: A/Qingyuan/GIRD01/2017 (H7N9); assay: microbe, parasite or virus in culture; format: cell-based, avian influenza virus; conditions: Influenza A virus, H7N9, MDCK, read-out: IC50 (mean ± SD)
# [15] = test system: Influenza virus B/Lee/40; assay: microbe, parasite or virus in culture; format: cell-based; conditions: MDCK, read-out: EC50 (mean ± SD)
# [16] = test system: Influenza virus A/PR/8/34 (H1N1); assay: microbe, parasite or virus in culture; format: cell-based; conditions: H1N1|PR/8, MDCK, read-out: EC50 (mean ± SD)
# [17] = test system: Influenza virus A/WS/33 (H1N1); assay: microbe, parasite or virus in culture; format: cell-based; conditions: H1N1, MDCK, read-out: EC50 (mean ± SD)
# [18] = test system: Influenza virus A/Weiss/43(H1N1); assay: microbe, parasite or virus in culture; format: cell-based; conditions: H1N1, MDCK, read-out: EC50 (mean ± SD)
# [19] = Cytotoxicity in MDCK cells without viral infection; conditions: dog
# [20] = test system: MDCK cells; assay: Cytotoxicity in MDCK cells without viral infection; conditions: MDCK, 37 °C
# [21] = test system: influenza A virus WSN/33 (H1N1); set-up: species or system BALB/c mice; conditions: mouse, in vivo; remark: listed apart in the source
# [22] = Cytotoxicity in parallel to antiviral assay; conditions: human; remark: listed apart in the source
# [23] = test system: HRV 1B; assay: microbe, parasite or virus in culture; format: cell-based; conditions: Human rhinovirus sp., H1-HeLa, read-out: EC50 for Virus
# [24] = test system: influenza A virus WSN/33 (H1N1); set-up: species or system BALB/c mice; conditions: mouse, in vivo; remark: listed apart in the source
# [25] = biological target: SRC (Homo sapiens, UniProt P12931); assay: biochemical
# [26] = biological target: PKA (Homo sapiens, UniProt P17612); assay: biochemical
# [27] = biological target: ABL1 (Homo sapiens, UniProt P00519); assay: biochemical
# [28] = biological target: CDK2 (Homo sapiens, UniProt P24941); assay: biochemical
# [29] = biological target: EPHA2 (Homo sapiens, UniProt P29317); assay: biochemical
# [30] = biological target: KDR (Homo sapiens, UniProt P35968); assay: biochemical
# [31] = biological target: FGFR1 (Homo sapiens, UniProt P11362); assay: biochemical
# [32] = biological target: TAOK2 (Homo sapiens, UniProt Q9UL54); assay: biochemical
# [33] = biological target: p38 alpha (Homo sapiens, UniProt Q16539); assay: biochemical
# [34] = biological target: influenza virus polymerase (PB1, PB2, NP, PA from A/California/04/2009 (H1N1) pdm09) (Influenza A virus, UniProt C3W5R8+C3W5R9); format: cell-based
# [35] = biological target: MINK (Homo sapiens, UniProt Q8N4C8); assay: biochemical
# [36] = biological target: CK1 alpha (Homo sapiens, UniProt P48729); assay: biochemical
# [37] = biological target: JAK2 (Homo sapiens, UniProt O60674); assay: biochemical
# [38] = biological target: MAP4K4 (Homo sapiens, UniProt O95819); assay: biochemical
# [39] = test system: Influenza virus A/Hong Kong/8/68 (H3N2); assay: microbe, parasite or virus in culture; format: cell-based; conditions: unidentified influenza virus, H3N2, MDCK, read-out: EC50 (mean ± SD)
# [40] = test system: Influenza virus A/California/2/2014 (H3N2); assay: microbe, parasite or virus in culture; format: cell-based; conditions: H3N2, MDCK, read-out: EC50 (mean ± SD)
# [41] = biological target: Aurora A (Homo sapiens, UniProt O14965); assay: biochemical
# [42] = biological target: MAPKAPK2 (Homo sapiens, UniProt P49137); assay: biochemical
# [43] = biological target: MST4 (Homo sapiens, UniProt Q9P289); assay: biochemical
# [44] = biological target: CHK1 (Homo sapiens, UniProt O14757); assay: biochemical
# [45] = biological target: GSK3 beta (Homo sapiens, UniProt P49841); assay: biochemical
# [46] = biological target: DYRK3 (Homo sapiens, UniProt O43781); assay: biochemical
# [47] = biological target: CAMK2 alpha (Homo sapiens, UniProt Q9UQM7); assay: biochemical
# [48] = test system: Influenza virus A/California/07/2009 (H1N1)pdm09; assay: microbe, parasite or virus in culture; format: cell-based; conditions: H1N1, MDCK, read-out: EC50 (mean ± SD)
# [49] = biological target: TNIK (Homo sapiens, UniProt Q9UKE5); assay: biochemical
# [50] = biological target: LCK (Homo sapiens, UniProt P06239); assay: biochemical
# [51] = biological target: JNK1 (Homo sapiens, UniProt P45983); assay: biochemical
# [52] = in vitro; conditions: dog, CC50 (mean ± SD)
# [53] = biological target: PDK1 (Homo sapiens, UniProt O15530); assay: biochemical
# Chain of JAK2 (O60674 whole entry): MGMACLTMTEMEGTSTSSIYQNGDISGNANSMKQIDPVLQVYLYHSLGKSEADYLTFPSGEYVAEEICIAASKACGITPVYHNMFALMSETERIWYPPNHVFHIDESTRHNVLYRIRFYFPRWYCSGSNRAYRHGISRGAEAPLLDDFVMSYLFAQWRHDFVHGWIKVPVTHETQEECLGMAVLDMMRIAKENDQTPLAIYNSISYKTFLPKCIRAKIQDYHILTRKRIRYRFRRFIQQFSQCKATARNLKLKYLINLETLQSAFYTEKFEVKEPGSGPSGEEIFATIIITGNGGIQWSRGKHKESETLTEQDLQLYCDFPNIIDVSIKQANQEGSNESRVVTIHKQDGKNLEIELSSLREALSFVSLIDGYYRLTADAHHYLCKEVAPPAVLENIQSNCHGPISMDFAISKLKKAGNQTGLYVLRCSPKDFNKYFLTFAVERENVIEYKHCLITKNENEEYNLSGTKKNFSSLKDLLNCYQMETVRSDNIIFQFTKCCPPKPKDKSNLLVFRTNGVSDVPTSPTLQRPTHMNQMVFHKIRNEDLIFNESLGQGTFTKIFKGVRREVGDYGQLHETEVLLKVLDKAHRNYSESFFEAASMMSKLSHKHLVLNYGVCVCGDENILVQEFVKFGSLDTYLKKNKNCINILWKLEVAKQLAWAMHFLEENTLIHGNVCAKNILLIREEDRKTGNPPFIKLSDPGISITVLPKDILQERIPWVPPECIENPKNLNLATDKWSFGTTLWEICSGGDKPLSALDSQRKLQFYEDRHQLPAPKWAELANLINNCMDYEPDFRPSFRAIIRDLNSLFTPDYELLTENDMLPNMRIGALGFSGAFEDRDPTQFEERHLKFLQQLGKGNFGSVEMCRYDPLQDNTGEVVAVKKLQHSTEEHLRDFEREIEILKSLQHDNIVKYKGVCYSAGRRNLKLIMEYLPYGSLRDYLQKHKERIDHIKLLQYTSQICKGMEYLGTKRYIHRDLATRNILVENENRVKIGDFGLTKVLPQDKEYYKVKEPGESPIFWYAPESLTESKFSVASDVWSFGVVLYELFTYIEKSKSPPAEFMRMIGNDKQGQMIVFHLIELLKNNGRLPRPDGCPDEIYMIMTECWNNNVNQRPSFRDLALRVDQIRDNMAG
# Chain of MAPKAPK2 (P49137 whole entry): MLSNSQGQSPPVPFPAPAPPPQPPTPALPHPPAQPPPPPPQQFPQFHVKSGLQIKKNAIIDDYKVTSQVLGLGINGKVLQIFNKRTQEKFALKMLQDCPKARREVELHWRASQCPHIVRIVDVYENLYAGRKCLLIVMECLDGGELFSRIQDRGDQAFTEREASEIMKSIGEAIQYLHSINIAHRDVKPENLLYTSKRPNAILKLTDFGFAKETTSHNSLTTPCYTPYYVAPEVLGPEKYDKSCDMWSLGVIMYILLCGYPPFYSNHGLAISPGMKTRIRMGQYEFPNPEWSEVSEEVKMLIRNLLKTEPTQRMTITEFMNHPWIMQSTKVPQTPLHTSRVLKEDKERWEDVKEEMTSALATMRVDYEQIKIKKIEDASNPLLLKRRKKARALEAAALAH
# Chain of CAMK2 alpha (Q9UQM7 whole entry): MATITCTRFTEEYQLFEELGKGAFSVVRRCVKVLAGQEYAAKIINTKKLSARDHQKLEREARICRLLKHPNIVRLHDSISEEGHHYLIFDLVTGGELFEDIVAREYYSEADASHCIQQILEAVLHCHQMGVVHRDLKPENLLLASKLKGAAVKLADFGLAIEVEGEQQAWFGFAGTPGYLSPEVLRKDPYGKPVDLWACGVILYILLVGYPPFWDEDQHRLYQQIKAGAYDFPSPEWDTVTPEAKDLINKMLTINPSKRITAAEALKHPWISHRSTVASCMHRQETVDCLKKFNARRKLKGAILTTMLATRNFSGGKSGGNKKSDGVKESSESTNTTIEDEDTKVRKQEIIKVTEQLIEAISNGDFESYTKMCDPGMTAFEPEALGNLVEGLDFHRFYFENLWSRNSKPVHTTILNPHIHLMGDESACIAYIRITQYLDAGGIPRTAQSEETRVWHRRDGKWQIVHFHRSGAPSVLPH
# Chain of TNIK (Q9UKE5 whole entry): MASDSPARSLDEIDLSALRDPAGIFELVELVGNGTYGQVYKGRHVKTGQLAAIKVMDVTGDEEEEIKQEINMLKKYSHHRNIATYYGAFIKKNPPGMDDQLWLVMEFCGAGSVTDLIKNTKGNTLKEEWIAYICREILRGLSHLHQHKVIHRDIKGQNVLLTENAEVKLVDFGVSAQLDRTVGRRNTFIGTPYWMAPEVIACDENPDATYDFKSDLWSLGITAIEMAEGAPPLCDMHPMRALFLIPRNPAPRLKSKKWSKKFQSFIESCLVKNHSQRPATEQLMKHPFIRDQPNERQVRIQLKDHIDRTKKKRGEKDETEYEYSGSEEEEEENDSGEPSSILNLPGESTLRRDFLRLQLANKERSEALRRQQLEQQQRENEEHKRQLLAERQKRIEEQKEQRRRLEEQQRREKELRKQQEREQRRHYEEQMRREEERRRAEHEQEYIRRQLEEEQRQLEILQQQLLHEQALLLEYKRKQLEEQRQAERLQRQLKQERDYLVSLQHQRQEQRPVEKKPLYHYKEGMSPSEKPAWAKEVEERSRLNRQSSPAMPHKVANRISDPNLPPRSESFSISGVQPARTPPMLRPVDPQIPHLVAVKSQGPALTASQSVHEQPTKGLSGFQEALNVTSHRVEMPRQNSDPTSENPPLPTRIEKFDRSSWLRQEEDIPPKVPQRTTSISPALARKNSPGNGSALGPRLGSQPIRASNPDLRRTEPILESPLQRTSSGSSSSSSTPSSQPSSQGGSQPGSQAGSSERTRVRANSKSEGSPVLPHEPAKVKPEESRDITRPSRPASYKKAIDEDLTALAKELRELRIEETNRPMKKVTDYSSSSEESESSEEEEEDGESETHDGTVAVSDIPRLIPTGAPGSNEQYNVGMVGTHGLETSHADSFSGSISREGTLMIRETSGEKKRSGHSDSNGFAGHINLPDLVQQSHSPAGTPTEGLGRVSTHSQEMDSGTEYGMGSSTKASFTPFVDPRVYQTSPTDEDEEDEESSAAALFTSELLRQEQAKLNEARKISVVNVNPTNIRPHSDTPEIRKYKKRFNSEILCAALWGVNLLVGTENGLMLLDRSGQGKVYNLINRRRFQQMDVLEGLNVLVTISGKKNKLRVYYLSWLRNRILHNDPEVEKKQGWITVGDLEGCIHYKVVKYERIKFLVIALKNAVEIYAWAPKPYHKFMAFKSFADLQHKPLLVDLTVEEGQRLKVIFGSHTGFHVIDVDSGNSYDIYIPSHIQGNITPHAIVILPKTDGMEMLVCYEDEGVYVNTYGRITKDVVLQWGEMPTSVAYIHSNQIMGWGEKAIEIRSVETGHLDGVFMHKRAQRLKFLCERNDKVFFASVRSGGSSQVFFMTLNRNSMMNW
# Chain of MINK (Q8N4C8 whole entry): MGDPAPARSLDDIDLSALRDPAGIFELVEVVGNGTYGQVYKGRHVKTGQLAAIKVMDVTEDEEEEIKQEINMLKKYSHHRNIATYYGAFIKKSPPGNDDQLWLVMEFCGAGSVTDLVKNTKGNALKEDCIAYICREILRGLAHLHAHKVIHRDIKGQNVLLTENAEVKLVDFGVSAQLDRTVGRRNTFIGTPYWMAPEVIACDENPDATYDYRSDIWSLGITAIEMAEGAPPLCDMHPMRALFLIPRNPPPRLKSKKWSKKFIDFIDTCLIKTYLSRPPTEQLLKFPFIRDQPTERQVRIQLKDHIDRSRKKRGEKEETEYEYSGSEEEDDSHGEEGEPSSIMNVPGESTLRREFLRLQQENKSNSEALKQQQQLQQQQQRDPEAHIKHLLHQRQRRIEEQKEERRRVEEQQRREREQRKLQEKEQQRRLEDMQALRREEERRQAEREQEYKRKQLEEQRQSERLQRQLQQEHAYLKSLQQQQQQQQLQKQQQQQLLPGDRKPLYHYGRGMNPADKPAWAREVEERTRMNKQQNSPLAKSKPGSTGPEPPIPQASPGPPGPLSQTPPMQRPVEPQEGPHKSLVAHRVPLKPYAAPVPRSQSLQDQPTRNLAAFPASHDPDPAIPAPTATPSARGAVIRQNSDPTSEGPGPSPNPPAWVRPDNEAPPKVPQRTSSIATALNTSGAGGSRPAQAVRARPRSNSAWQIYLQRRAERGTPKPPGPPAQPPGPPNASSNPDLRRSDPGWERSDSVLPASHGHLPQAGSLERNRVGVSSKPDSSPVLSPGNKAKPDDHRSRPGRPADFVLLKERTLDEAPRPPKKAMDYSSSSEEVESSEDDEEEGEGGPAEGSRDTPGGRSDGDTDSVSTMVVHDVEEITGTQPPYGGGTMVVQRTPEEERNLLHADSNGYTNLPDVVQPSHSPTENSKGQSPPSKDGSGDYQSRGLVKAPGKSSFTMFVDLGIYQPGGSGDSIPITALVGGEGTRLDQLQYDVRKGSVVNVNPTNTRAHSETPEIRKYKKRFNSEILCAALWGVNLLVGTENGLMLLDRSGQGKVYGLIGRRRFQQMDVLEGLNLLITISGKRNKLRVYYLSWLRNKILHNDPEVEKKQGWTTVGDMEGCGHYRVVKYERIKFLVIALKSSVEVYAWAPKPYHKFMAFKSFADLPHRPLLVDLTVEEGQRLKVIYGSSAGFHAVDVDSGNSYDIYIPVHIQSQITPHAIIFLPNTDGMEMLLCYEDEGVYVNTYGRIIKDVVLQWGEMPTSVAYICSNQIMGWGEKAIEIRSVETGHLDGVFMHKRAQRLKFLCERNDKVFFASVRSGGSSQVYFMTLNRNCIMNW
# Chain of CK1 alpha (P48729 whole entry): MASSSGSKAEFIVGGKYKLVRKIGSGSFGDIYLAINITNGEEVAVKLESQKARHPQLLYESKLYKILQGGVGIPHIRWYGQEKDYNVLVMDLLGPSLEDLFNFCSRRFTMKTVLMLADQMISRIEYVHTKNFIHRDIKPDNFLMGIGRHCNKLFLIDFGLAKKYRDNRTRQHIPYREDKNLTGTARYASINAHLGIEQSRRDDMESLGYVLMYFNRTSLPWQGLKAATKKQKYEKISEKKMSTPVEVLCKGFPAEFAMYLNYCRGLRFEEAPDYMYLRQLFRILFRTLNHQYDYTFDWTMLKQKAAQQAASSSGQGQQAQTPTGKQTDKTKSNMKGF
compound,measurement,setting,value
"CCOC(=O)/C=C/[C@H](C[C@@H]1CCNC1=O)NC(=O)[C@@H](CC(=O)[C@@H](NC(=O)c1cc(C)on1)C(C)C)Cc1ccc(F)cc1 [AG7088, reference compound]",EC50,[1],0.012 µM
same,CC50,[2],> 1 µM
"Nc1nc2c(ncn2COCCO)c(=O)[nH]1 [Acyclovir, reference compound]",EC50,[3],0.655 µM
same,CC50,[4],> 10 µM
"C=C1[C@H](CO)[C@@H](O)C[C@@H]1n1cnc2c(=O)[nH]c(N)nc21 [Entecavir, reference compound]",EC50,[5],0.000338 µM
same,CC50,[6],> 0.02 µM
CCOC(=O)C1=C[C@@H](OC(CC)CC)[C@H](NC(C)=O)[C@@H](N)C1 [Oseltamivir],EC50,[7],1.34 ± 1.92 µM
same,IC50,[8],175 µM
same,mortality rate,[9],90%
same,body weight of mice,[10],did not significantly reduce the body weight
same,survival rate vs vehicle,[10],could improve the survival rate
same,time of death relative to vehicle group,[10],died after 7 h—earlier than in the vehicle group
same,IC50,[11],1650 µM
same,EC50,[12],10.1 ± 9.82 µM
same,viral load in nasal lavage fluid vs vehicle,[13],decreased significantly
same,IC50,[14],1690 µM
same,EC50,[15],2.94 ± 3.62 µM
same,EC50,[16],4.89 ± 7.37 µM
same,EC50,[17],2.43 ± 1.24 µM
same,EC50,[18],5.62 ± 2.78 µM
same,CC50,[19],> 100 µM
same,CC50,[20],> 100 µM
same,animals died (of n = 8),[21],five
same,day on which body weight of surviving mice began to recover,[21],9 days
same,day on which weight of surviving mice increased gradually,[21],9th
same,mice died (of n = 8),[21],three
"Cc1cc(CCCOc2c(C)cc(-c3noc(C(F)(F)F)n3)cc2C)on1 [Pleconaril, reference compound]",CC50,[22],> 5 µM
same,EC50,[23],0.028 µM
"O=C(O)[C@H]1C2CCC(CC2)[C@@H]1Nc1nc(-c2c[nH]c3ncc(F)cc23)ncc1F [VX-787, reference compound]",EC50,[7],0.000295 ± 0.000111 µM
same,day on which mice began to regain body weight,[24],4 days
same,IC50,[25],> 10 µM
same,IC50,[26],> 10 µM
same,IC50,[8],0.000834 ± 0.000204 µM
same,IC50,[27],> 10 µM
same,mortality rate,[9],70%
same,IC50,[28],> 10 µM
same,body weight of mice,[10],did not significantly reduce the body weight
same,survival rate vs vehicle,[10],could improve the survival rate
same,time of death relative to vehicle group,[10],died after 7 h—earlier than in the vehicle group
same,IC50,[29],> 10 µM
same,IC50,[11],9.18e-05 ± 1.45e-05 µM
same,EC50,[12],0.000315 ± 7e-05 µM
same,IC50,[30],> 10 µM
same,IC50,[31],> 10 µM
same,IC50,[32],> 10 µM
same,IC50,[33],> 10 µM
same,IC50,"[34]; read-out: IC50, Mean ± SEM",0.00145 ± 0.00034 µM
same,IC50,"[34]; read-out: IC50, experiment 1",0.00128 µM
same,IC50,"[34]; read-out: IC50, experiment 2",0.00123 µM
same,IC50,"[34]; read-out: IC50, experiment 3",0.00184 µM
same,viral load in nasal lavage fluid vs vehicle,[13],decreased but showed no statistical significance
same,IC50,[35],> 3.33 µM
same,IC50,[14],0.00192 ± 0.000492 µM
same,IC50,[36],> 10 µM
same,IC50,[37],> 10 µM
same,IC50,[38],1.78 µM
same,EC50,[39],0.000162 ± 3.4e-05 µM
same,EC50,[40],0.00015 ± 2e-05 µM
same,EC50,[15],> 0.01 µM
same,IC50,[41],1.11 µM
same,IC50,[42],> 10 µM
same,IC50,[43],> 10 µM
same,IC50,[44],> 10 µM
same,IC50,[45],> 3.33 µM
same,EC50,[16],0.00076 ± 0.000355 µM
same,EC50,[17],0.000206 ± 6.1e-05 µM
same,IC50,[46],> 10 µM
same,EC50,[18],0.000255 ± 5.5e-05 µM
same,IC50,[47],> 10 µM
same,EC50,[48],0.00024 ± 0.00014 µM
same,IC50,[49],> 3.33 µM
same,IC50,[50],> 10 µM
same,IC50,[51],> 10 µM
same,CC50,[52],21.1 ± 9.76 µM
same,IC50,[53],> 10 µM
same,animals died (of n = 8),[21],four
same,day on which body weight of surviving mice began to recover,[21],8 days
same,day on which weight of surviving mice increased gradually,[21],8th
same,mice died (of n = 8),[21],no mice died
same,survival rate,[21],100%
